Laboratory results published in the NIST ThermoML archive (doi:10.1021/je060271a).
“And” between values parts separate entries of the source, which are not always exact repeats. Equal entries are not always repeated. Numbers after ± are expanded uncertainties.

Conditions: 343.15 K, Liquid, Vibrating tube method

CCCCCCC(=O)OCC(COC(=O)CCCCCC)(COC(=O)CCCCCC)COC(=O)CCCCCC [pentaerythritol tetraheptanoate]
Conditions | mass density
30538 kPa | 961.6 ± 1.2 kg/m3
30568 kPa | 961.6 ± 1.2 kg/m3
30571 kPa | 961.6 ± 1.2 kg/m3
30599 kPa | 961.6 ± 1.2 kg/m3
30602 kPa | 961.8 ± 1.2 kg/m3
30627 kPa | 961.7 ± 1.2 kg/m3
30642 kPa | 961.7 ± 1.2 kg/m3
30660 kPa | 961.6 ± 1.2 kg/m3
30675 kPa | 961.7 ± 1.2 kg/m3
30688 kPa | 961.8 ± 1.2 kg/m3
30710 kPa | 961.8 ± 1.2 kg/m3
30716 kPa | 961.7 ± 1.2 kg/m3
30744 kPa | 961.7 ± 1.2 kg/m3
30778 kPa | 961.7 ± 1.2 kg/m3
30785 kPa | 961.7 ± 1.2 kg/m3
30806 kPa | 961.8 ± 1.2 kg/m3
30819 kPa | 961.8 ± 1.2 kg/m3
30835 kPa | 961.8 ± 1.2 kg/m3
30860 kPa | 961.8 ± 1.2 kg/m3
30870 kPa | 961.7 ± 1.2 kg/m3
30894 kPa | 961.8 ± 1.2 kg/m3
30900 kPa | 961.7 ± 1.2 kg/m3
30928 kPa | 961.8 ± 1.2 kg/m3 and 962 ± 1.2 kg/m3
30956 kPa | 961.9 ± 1.2 kg/m3
30970 kPa | 962 ± 1.2 kg/m3
30990 kPa | 961.7 ± 1.2 kg/m3
31004 kPa | 961.9 ± 1.2 kg/m3
31019 kPa | 961.9 ± 1.2 kg/m3
31040 kPa | 962.1 ± 1.2 kg/m3
31048 kPa | 961.8 ± 1.2 kg/m3
31081 kPa | 962 ± 1.2 kg/m3
31082 kPa | 961.8 ± 1.2 kg/m3
31111 kPa | 962 ± 1.2 kg/m3
31116 kPa | 962 ± 1.2 kg/m3
31145 kPa | 962.1 ± 1.2 kg/m3
31151 kPa | 962 ± 1.2 kg/m3
31174 kPa | 962.1 ± 1.2 kg/m3
31193 kPa | 962.1 ± 1.2 kg/m3
31203 kPa | 961.9 ± 1.2 kg/m3
31229 kPa | 962.1 ± 1.2 kg/m3
31238 kPa | 962 ± 1.2 kg/m3
31264 kPa | 962.1 ± 1.2 kg/m3
31268 kPa | 962 ± 1.2 kg/m3
31298 kPa | 962.1 ± 1.2 kg/m3
31306 kPa | 962 ± 1.2 kg/m3
31327 kPa | 962 ± 1.2 kg/m3
31342 kPa | 962.2 ± 1.2 kg/m3
31362 kPa | 962.1 ± 1.2 kg/m3
31377 kPa | 962 ± 1.2 kg/m3
31392 kPa | 962.1 ± 1.2 kg/m3
31420 kPa | 962.3 ± 1.2 kg/m3
31427 kPa | 962.1 ± 1.2 kg/m3
31456 kPa | 962 ± 1.2 kg/m3
31457 kPa | 962.2 ± 1.2 kg/m3
31486 kPa | 962.2 ± 1.2 kg/m3
31492 kPa | 962.3 ± 1.2 kg/m3
31516 kPa | 962.2 ± 1.2 kg/m3
31528 kPa | 962.2 ± 1.2 kg/m3
31552 kPa | 962.2 ± 1.2 kg/m3
31571 kPa | 962.3 ± 1.2 kg/m3
31582 kPa | 962.3 ± 1.2 kg/m3
31608 kPa | 962.4 ± 1.2 kg/m3
31611 kPa | 962.3 ± 1.2 kg/m3
31644 kPa | 962.3 ± 1.2 kg/m3
31647 kPa | 962.2 ± 1.2 kg/m3
31678 kPa | 962.4 ± 1.2 kg/m3
31688 kPa | 962.3 ± 1.2 kg/m3
31715 kPa | 962.3 ± 1.2 kg/m3
31725 kPa | 962.5 ± 1.2 kg/m3
31745 kPa | 962.3 ± 1.2 kg/m3
31761 kPa | 962.4 ± 1.2 kg/m3
31775 kPa | 962.4 ± 1.2 kg/m3
31805 kPa | 962.4 ± 1.2 kg/m3
31807 kPa | 962.4 ± 1.2 kg/m3
31841 kPa | 962.4 ± 1.2 kg/m3
31844 kPa | 962.4 ± 1.2 kg/m3
31871 kPa | 962.5 ± 1.2 kg/m3
31874 kPa | 962.4 ± 1.2 kg/m3
31905 kPa | 962.5 ± 1.2 kg/m3
31914 kPa | 962.5 ± 1.2 kg/m3
31942 kPa | 962.3 ± 1.2 kg/m3
31958 kPa | 962.4 ± 1.2 kg/m3
31972 kPa | 962.6 ± 1.2 kg/m3
32003 kPa | 962.4 ± 1.2 kg/m3
32009 kPa | 962.5 ± 1.2 kg/m3
32040 kPa | 962.6 ± 1.2 kg/m3
32041 kPa | 962.6 ± 1.2 kg/m3
32071 kPa | 962.6 ± 1.2 kg/m3
32078 kPa | 962.5 ± 1.2 kg/m3
32104 kPa | 962.5 ± 1.2 kg/m3
32115 kPa | 962.6 ± 1.2 kg/m3
32136 kPa | 962.5 ± 1.2 kg/m3
32160 kPa | 962.6 ± 1.2 kg/m3
32173 kPa | 962.5 ± 1.2 kg/m3
32199 kPa | 962.6 ± 1.2 kg/m3
32205 kPa | 962.6 ± 1.2 kg/m3
32236 kPa | 962.7 ± 1.2 kg/m3
32237 kPa | 962.7 ± 1.2 kg/m3
32274 kPa | 962.7 ± 1.2 kg/m3
32282 kPa | 962.7 ± 1.2 kg/m3
32305 kPa | 962.7 ± 1.2 kg/m3
32320 kPa | 962.7 ± 1.2 kg/m3
32337 kPa | 962.6 ± 1.2 kg/m3
32358 kPa | 962.7 ± 1.2 kg/m3
32368 kPa | 962.7 ± 1.2 kg/m3
32403 kPa | 962.8 ± 1.2 kg/m3
32406 kPa | 962.7 ± 1.2 kg/m3
32438 kPa | 962.8 ± 1.2 kg/m3
32441 kPa | 962.8 ± 1.2 kg/m3
32471 kPa | 962.8 ± 1.2 kg/m3
32480 kPa | 962.9 ± 1.2 kg/m3
32509 kPa | 962.8 ± 1.2 kg/m3
